Columns and labels:
[1] = system: mice; assay: In vivo model of ischaemia reperfusion injury in mice; set-up: species or system mouse; conditions: 10 mg/kg via jugular vein
Protocol: Male C57/BL6 mice weighing 25-30 g were used throughout. Animals received humane care in accordance with the United Kingdom Home Office Guide on the Operation of Animal (Scientific Procedures) Act 1986, Project Licence PPL70/15358.
Animals were anaesthetised with intraperitoneal (i.p.) sodium pentobarbital at a dose of 100 mg/kg. The mice were intubated by tracheotomy and ventilated with room air using a small animal ventilator (MinVent, Type 845, Hugo Sachs Elektronik, Harvard Apparatus). The mice were then placed on a heating pad and the rectal temperature monitored and maintained at ˜37° C. using a temperature controller. During the experiments, both ECG and heart rate were continuously recorded using a PowerLab (Adinstrument, USA). […]
After 120 min reperfusion, the chest was re-opened, the heart was removed and cannulated via the thoracic aorta, and blood within the heart was washed out with saline. […] The total area of myocardium, the non-ischaemic area (which is stained with Evans blue), and the infarct area (i.e. the white area) of each slice were measured using Image-J software. The “area at risk” was calculated by subtraction of the non-ischaemic area (blue area) from the whole slice area and expressed as “percentage of the left ventricle”, and “infarct size” calculated as infarct area as a percentage of the area at risk. […]

[2] = system: PI3Kα-WT and PI3Kα-KO MEFs; assay: CellTiter-Glo ATP content in MEFs; assay type: cell-based, mouse
Protocol: A role for PI3Kα in activation of anabolic metabolism, cell cycle progression and cell proliferation is well-established.
MEFs were seeded at 5000 cells per well in 96-well plates in DMEM supplemented with 10% FBS and 1% P/S, and allowed to attach overnight. The next day, cells were serum starved for 4 h prior to compound treatment in fresh serum-free DMEM. Compounds solubilised in DMSO were diluted 1:2 in a 12-point concentration response curve in DMSO. Intermediate plates were prepared by transferring 4 μl of compounds in DMSO into 96 μl of serum-free DMEM media. This was then used to treat cell plates by transferring 12.5 μl of solution from the intermediate plate into 87.5 μl of serum-free DMEM in the cell plates. […] Cell plates were incubated for 24 h, 48 h or 72 h at 37° C., 5% CO2, followed by determination of cell survival using the CellTiter-Glo® reagent according to manufacturer's instructions (Promega #G7571). Endpoint luminescence was measured using CLARIOstar (BMG). Compound data were analyzed using GraphPad Prism 8.

[3] = molecular target: T1, G106V mutant of p110α (Homo sapiens, UniProt P42336, G106V); assay: FRET membrane binding, oncogenic mutant G106V; assay type: biochemical
T1 construct: Full-length p110α was expressed in a complex with full-length p85α (for biochemistry and HDX-MS); 6xHis followed by TEV protease site (N); made in house; host or cells: Spodoptera frugiperda Sf9 (plasmid JB35)
Protocol: Co-stimulation of 1938 with pY led to an additive activatory effect for G106V, but not for the N345K and E545K mutants (FIG. 1f/FIG. 22f).
Membrane binding assays were performed as previously published (Burke, J. E. et al. Proc Natl Acad Sci USA 109, 15259-15264 (2012)). Briefly, liposomes were prepared with 5% (w/v) brain PtdIns(4,5)P2, 20% brain phosphatidylserine, 35% brain phosphatidylethanolamine, 15% brain phosphatidylcholine, 10% cholesterol, 5% sphingomyelin, and 10% dansyl-phosphatidylserine (Avanti Polar Lipids). PI3Kα was used at a final concentration of 0.5 μM. Protein solutions were preincubated with 10 μM pY or compounds for 10 min before addition of liposomes. Liposomes were used at a final concentration of 50 μg/ml. The reaction mixture contained 5 μl enzyme, 2 μl compound and 3 μl liposomes, all diluted in 30 mM HEPES, 50 mM NaCl, pH 7.4. The reaction was allowed to proceed for 10 min at room temperature in 384 black-polystyrene plates (Corning #3544) on an orbital shaker at 200 rpm. FRET signals were measured using PHERAStar (BMG) with a 280 nm excitation filter with 350 nm and 520 nm emission filters to measure Dansyl-PS FRET emissions, respectively. FRET signal shown as I-I0, where I is the intensity at 520 nm, and 10 is the intensity at 520 nm for the solution in the absence of protein.

T1 sequence (P42336 whole entry G106V): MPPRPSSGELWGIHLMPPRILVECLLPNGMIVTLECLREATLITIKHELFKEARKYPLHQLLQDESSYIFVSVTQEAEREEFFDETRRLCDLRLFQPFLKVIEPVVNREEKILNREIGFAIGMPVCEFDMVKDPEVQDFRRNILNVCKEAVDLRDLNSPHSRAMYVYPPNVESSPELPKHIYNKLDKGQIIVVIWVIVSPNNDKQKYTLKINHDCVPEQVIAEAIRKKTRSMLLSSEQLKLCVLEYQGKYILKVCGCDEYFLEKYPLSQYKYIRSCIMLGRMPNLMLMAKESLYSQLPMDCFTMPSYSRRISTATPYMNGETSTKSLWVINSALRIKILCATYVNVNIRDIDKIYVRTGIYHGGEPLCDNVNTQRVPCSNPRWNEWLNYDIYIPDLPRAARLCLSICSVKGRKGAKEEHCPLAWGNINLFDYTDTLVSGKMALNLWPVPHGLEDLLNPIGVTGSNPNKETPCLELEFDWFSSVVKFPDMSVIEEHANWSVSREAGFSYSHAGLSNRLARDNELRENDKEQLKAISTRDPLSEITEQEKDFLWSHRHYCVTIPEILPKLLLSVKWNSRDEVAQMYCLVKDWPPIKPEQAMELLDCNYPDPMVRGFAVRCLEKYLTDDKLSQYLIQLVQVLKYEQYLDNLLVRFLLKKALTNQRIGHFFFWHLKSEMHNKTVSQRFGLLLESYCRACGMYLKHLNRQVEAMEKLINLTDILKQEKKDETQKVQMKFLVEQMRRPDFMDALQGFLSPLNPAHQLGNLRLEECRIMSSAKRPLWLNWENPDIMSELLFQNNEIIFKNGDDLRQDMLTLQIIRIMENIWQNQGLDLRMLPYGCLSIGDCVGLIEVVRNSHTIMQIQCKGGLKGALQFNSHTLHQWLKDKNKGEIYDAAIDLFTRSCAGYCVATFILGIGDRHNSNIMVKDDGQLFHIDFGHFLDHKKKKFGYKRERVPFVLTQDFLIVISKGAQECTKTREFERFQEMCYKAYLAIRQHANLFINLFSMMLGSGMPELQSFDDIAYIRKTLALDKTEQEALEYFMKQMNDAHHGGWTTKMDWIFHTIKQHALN
T1 sequence (P27986 whole entry partner): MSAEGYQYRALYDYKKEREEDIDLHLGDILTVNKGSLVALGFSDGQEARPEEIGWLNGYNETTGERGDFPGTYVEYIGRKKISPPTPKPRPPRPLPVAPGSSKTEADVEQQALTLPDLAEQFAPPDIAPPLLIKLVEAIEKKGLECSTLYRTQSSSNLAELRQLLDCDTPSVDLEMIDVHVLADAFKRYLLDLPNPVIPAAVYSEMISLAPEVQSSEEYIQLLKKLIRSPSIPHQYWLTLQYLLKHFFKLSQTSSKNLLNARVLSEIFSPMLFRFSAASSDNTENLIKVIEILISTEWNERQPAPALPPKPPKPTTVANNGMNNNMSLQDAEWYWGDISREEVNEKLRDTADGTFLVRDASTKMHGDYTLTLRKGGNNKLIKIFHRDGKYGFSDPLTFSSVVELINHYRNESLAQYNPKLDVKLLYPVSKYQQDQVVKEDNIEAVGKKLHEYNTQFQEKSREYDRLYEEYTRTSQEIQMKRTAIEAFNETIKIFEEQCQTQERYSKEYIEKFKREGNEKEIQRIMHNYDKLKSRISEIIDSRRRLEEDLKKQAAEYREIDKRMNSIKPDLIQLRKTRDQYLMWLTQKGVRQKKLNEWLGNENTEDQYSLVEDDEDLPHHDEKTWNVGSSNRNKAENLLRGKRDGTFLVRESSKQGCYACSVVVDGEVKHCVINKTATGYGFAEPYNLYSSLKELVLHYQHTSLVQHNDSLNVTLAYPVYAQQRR

## CCN1CCN(c2ccc(Nc3cc(Nc4cccc5c4N(C(C)=O)CC5)ccn3)cc2)CC1 [Example 1938]
[1]
  pAKT^S473 levels in the hearts of mice: corresponding increase in pAKT^S473 levels
[1]; 15 min prior to reperfusion
  cardioprotection in mice: significant cardioprotection
[2]; 24 h incubation, PI3Kα-WT and PI3Kα-KO MEFs
  concentrations that decreased ATP levels (PI3Kα-independent effects): > 7.5 µM
[2]; 48 h and 72 h incubation
  concentrations with non-PI3Kα-dependent effects: ≥ 2 µM
[2]; Mus musculus, PI3Kα-WT MEFs, CellTiterGlo, read-out: EC50 of increase in metabolic activity (ATP content)
  EC50: ~500 nM
[3]
  membrane binding of G106V: did not increase

— patent publication US20250263404A1, “AMINOPYRIDINES AS ACTIVATORS OF PI3 KINASE” (UCL Business Ltd, priority 2021, published 2025)
